These results are taken from ChEMBL document CHEMBL3832541, “DailyMed|setid=33ddfdb1-b4bc-464d-a186-49c4b156279f | DOXORUBICIN HYDROCHLORIDE- doxorubicin hydrochloride injection, solution|Actavis Pharma, Inc”.

“And” between values parts separate entries of the source, which are not always exact repeats. Equal values may be shown once.

What all share (format): ADME, organism-based
Data set [1] can be described thus: (§1) Evaluation of pharmacokinetic parameters for Doxorubicin hydrochloride following single intravenous administration of Doxorubicin hydrochloride solution to patients with various types of tumors. Particulars: human, dosed compound id 8, dosed compound name DOXORUBICIN HYDROCHLORIDE, regimen Single dose, tissue Plasma, read-out: Protein binding (converted).
For data set [2], the system named is Homo sapiens. The description is as §1. Particulars: in vivo, iv, dosed compound id 8, dosed compound name DOXORUBICIN HYDROCHLORIDE, regimen Single dose, tissue Plasma.
Data set [3] relates to Homo sapiens. Description: Evaluation of pharmacokinetic parameters for Doxorubicin hydrochloride following multiple intravenous administration of Doxorubicin hydrochloride solution to children, adolescents and adults subjects. Particulars: in vivo, dose 10 to 75 mg/m2, dosed compound id 8, dosed compound name DOXORUBICIN HYDROCHLORIDE, gender male and female, regimen Multiple dose, tissue Plasma.

As to `COc1cccc2c1C(=O)c1c(O)c3c(c(O)c1C2=O)C[C@@](O)(C(=O)CO)C[C@@H]3O[C@H]1C[C@H](N)[C@H](O)[C@H](C)O1.Cl` [DOXORUBICIN HYDROCHLORIDE], the fraction unbound in data set [1] is 0.25. Also, the CL is 433 mL/min/m2 with Homo sapiens [2] (gender female); 1088 mL/min/m2 in the data set with Homo sapiens [2] (gender male); 1443 mL/min/m2 and 1540 mL/min/m2 and 813 mL/min/m2 in the data set with Homo sapiens [3]. Moreover, the t1/2-terminal in the data set with Homo sapiens [2] (gender female) was 35 h; in the data set on Homo sapiens [2] (gender male), 54 h; in the data set with Homo sapiens [2] it was 20 to 48 h. Moreover, the t1/2-distribution in the data set with Homo sapiens [2] was 5 min.
